For the assay, the system named is bacterial strain MSI001. Kind of assay: In vitro antibacterial assay (colony counting). The assay is classed as cell-based, Escherichia coli. The following applies: 1 × 10^3 CFU, peptide 0.25, 0.5, 1 μmol/L, 37 °C, 1-8 h, colony count, n = 3. As to the method: Fig. 6 Antimicrobial activity of the C7C-LL37 fusion peptides in vitro. a Primary structures and physical properties of the C7C and LL37 fusion peptides, including LL37, VTK-LL37, LL37-VTK, KYY-LL37 and LL37-KYY, ISS-LL37, INS-LL37. Net charge, PI and GRAVY values were acquired as described above. b Inhibitory effect of C7C-LL37 fusion peptides on bacterial growth. A C7C-LL37 fusion peptide or LL37 alone was added to the cultured bacterial strain MSI001 (1 × 10^3 CFU) at final concentrations of 0.25 μmol/L, 0.5 μmol/L and 1 μmol/L. Sterile DPBS was used as control. After incubation with the C7C-LL37 or LL37 peptides at 37 °C for different times (1-8 h), bacterial colonies were counted. n = 3. *P < 0.05, VTK-LL37 group compared to LL37 group; ^#P < 0.05, LL37-VTK group compared to LL37 group. c, d Inhibitory effect of VTK-LL37 on biofilm formation. The VTK-LL37 or LL37 peptide was added to the bacterial culture at a final concentration of 0-4 μmol/L and incubated at 37 °C for 3 days. Bacterial culture medium and the peptides were refreshed every day. The biofilm was stained with 1% crystal violet, and the precipitates were dissolved in 95% ethanol, followed by detection of absorbance at 570 nm (A570) (c). Moreover, the biofilm was observed under a microscope (d). n = 5. *P < 0.05, VTK-LL37 group compared to LL37 group […]

Entries after “also recorded” stand apart in the source; their conditions may differ.

With “CVTKLGSLCVPGVGLLGDFFRKSKEKIGKEFKRIVQRIKDFLRNLVPRTES [VTK-LL37]”, the “inhibitory effect on bacterial growth of MSI001” value is on record as “inhibited MSI001 bacterial growth but also showed stronger antibiotic activity than LL37 alone in the early stage (1-3 h); also recorded: stronger bacteriostatic activity than other LL37 fusion peptides”.

The values above are taken from paper PMC9309159, “Identification of heptapeptides targeting a lethal bacterial strain in septic mice through an integrative approach” (Signal Transduction and Targeted Therapy, 2022).
